What was measured:
Assay type in all cases: cell-based, human
[1] = tested on: H3-K27 trimethylation; experiment: Western blot for H3K27me3 in repeatedly stimulated T cells; details: inhibitor maintained in activation cultures; FIG. 2D
Experimental: (§1) In experiments using p38MAPK, JNK, MEK1 and Ezh2 inhibitors, cells were grown in the continued presence of inhibitors. After each wash and activation step, cells were treated with a fresh batch of inhibitors. The following inhibitors were used: MAPKp38-SB202190 (10 μmol/ml) (Sigma, cat. S7067), JNK-SP600125 (10 μmol/ml) (Sigma, cat. S5567), MEK1-PD98059 (5 μmol/ml) (Calbiochem, cat. 513001), MEK1/2-inhibitor III (5 μmol/ml) (Calbiochem, cat. 444966) and Ezh2-[…] (10 nmol) (Millipore, cat. 505052). DMSO was used as a mock treatment. The specificity of p38MAPK, JNK and MEK1 inhibitors to block the downstream kinases, phospho-ATF2, phospho-cJun and phospho-ERK, respectively, was confirmed by westerns (FIG. 18A).
(§2) For denaturing westerns, 20-40 μg of protein extracted from T cells was used. RIPA lysis buffer (Sigma, cat. R0278) was used to prepare whole cell extracts. For native gel analysis, cells were lysed in native lysis buffer (50 mM Tris-Cl, pH 8.0; 1% NP40; 150 mM NaCl, 100 μg leupeptin, 1 mM PMSF, 5 mM orthovanadate). For both native and denaturating conditions, samples were resolved on 4-15% TGX precast gels (Bio-Rad, cat. 456-1084) with the difference in running buffer. Native samples were run without SDS. […]

[2] = tested on: T cells; experiment: IFNγ ELISA, repeatedly stimulated T cells; details: FIG. 16
Experimental: (§3) ELISA assays were performed using human IL2 and IFNγ Ready-SET-Go kits (eBioscience). Three replicates were included for each experimental set and each experiment was repeated three or more times. ELISA was performed on the supernatant saved from each stimulation step. CD4+ or CD8+ T cells were stimulated with anti-CD3/CD28 beads and cultured for 48 hours, after which cells were spun down and supernatants carefully removed and saved at −20° C. The same procedure was followed for the rest of the stimulation steps.
Human T cell isolation and culture in vitro. CD4+ and CD8+ T cells were enriched from peripheral blood mononuclear cells obtained from healthy donors. Leukoreduction filters from Boston Children's Hospital that were processed using histopaque (Sigma) cushions to separate PBMCs were used. Human CD8+ and CD4+ cells were enriched using naïve CD8 and CD4 T cell enrichment cocktail (BD Biosciences, cat. 51-900481 and 9002314, respectively). […] Cells were stimulated the same day with T-Activator CD3/CD28 dynabeads (Life Technologies, cat. 11131D) following the manufacturer's recommendations. 48 hours after the first stimulation, cells were counted and washed, and beads were removed using a magnet. This was followed by a second, third and fourth round of stimulations with fresh batches of CD3/CD28 beads. […]

[3] = tested on: H3-K27 trimethylation of the IL2 promoter; experiment: ChIP with anti-H3K27me3 antibody and qPCR for IL2 promoter; details: repeatedly stimulated CD4 T cells; FIG. 2E
Experimental: Chromatin immunoprecipitation assay. The ChIP assay was performed using a ChIP-IT high sensitivity kit (Active Motif, cat. 53040), following the manufacturer's recommended protocol. Human CD4+ T cells were repeatedly activated with CD3/CD28 beads in the continued presence of Ezh2 inhibitor or transfected with YY1 shRNA and a control after 2nd stimulation. Approximately 15 μg of chromatin was used in each reaction with an antibody that specifically recognizes H3K27me3 (Active Motif, cat. 39155). Fold enrichment was calculated relative to IgG and input.

[4] = tested on: CD4 T cells; experiment: IL2 ELISA, T cells repeatedly stimulated with anti-CD3/CD28 beads (in vitro exhaustion model); details: T cells continuously with Ezh2 inhibitor (10 nmol), after the 4th stimulation
Experimental: as §1, §3
Human T cell isolation and culture in vitro. […] 48 hours after the first stimulation, cells were counted and washed, and beads were removed using a magnet. […]

[5] = tested on: MIPCEA cells; details: by the 3rd co-culture; Ezh2 inhibitor 10 nm
From the text: (§4) To produce second generation CEA-CAR T cells, T cells were modified by retroviral gene therapy to express a single chain antibody domain (sFv) that recognizes CEA tumor antigen. This anti-CEA binding domain is fused together with the full length sequence of CD28 co-stimulatory molecule and sequences of the signaling chain of the CD3 complex (signal 1+2) (FIG. 6A) (Nolan et al., 1999). The clinical grade CEA-CAR vector producing cells have been successfully tested in a number of in vitro studies as well as in a clinical setting to modify T cells for breast cancer clinical trials (Katz et al., 2015). The first generation CEA-CAR contains anti-CEA binding domain fused with signaling chain (signal 1) (Nolan et al., 1999 Clin Cancer Res 5, 3928-3941). Transduction of T cells with anti CEA-CAR vector were as previously described (Beaudoin et al., 2008 Nat Med 9, 540-547).
MIP101 and MIPCEA, tumor cell coculture with CEA-CAR modified T cells. MIP101 is a CEA-undifferentiated human carcinoma cell line derived from liver metastases of colonic adenocarcinoma patients. The MIPCEA cell line was generated by stably expressing the full length CEA gene in MIP101 cells (Thomas et al., 1995 Cancer Lett 92, 59-66). […] Each time after the coculture, tumor cells were trypsinized (cellgro) and counted.

[6] = tested on: CEA-CAR T cells; experiment: IL2 ELISA in MIPCEA/CAR-T cell cocultures; details: 2nd generation CAR-T, MIPCEA cocultures; Ezh2 inhibitor 10 nm or nivolumab 20 μg/ml
Experimental: as §3
as §4, with “The first generation CEA-CAR contains anti-CEA binding domain fused with signaling chain (signal 1) (Nolan et al., 1999 Clin Cancer Res 5, 3928-3941). Transduction of T cells with anti CEA-CAR vector were as previously described (Beaudoin et al., 2008 Nat Med 9, 540-547).” left out
MIP101 and MIPCEA, tumor cell coculture with CEA-CAR modified T cells. […] Each time after the coculture, tumor cells were trypsinized (cellgro) and counted.

[7] = tested on: YY1 promoter; experiment: YY1 promoter luciferase reporter assay in restimulated T cells; details: after four stimulations, continued presence of inhibitor; FIG. 5C upper
Experimental: Human YY1 promoter luciferase construct YY1-pGLuc-basic was a kind gift from Dr. Guangchao Sui of Wake Forest Health Sciences, NC (Huang et al., 2012 Nucleic Acids Res 40, 1033-1049). The cJun/ATF2 octameric palindrome cyclic AMP-response element (CRE), 5′-[…]-3′(SEQ ID NO: 40), was mutated to 5′-cGgCaTaA-3′ (SEQ ID NO: 41) using the service of GenScript Inc. (Item cat. 426354-1).
The reporter assays and plasmid overexpression were performed in 6 well tissue culture plates. 5×10^6 T cells were transfected with plasmids using Amaxa human T cell nucleofector Kit, cat. VPA-1002 (Lonza). Transfections were performed using Amaxa nucleofector II device, program no. T-023/T-020. Luciferase assays were generally performed 48 hours after transfections. […] The YY1 promoter luciferase assay was measured from T cell culture supernatants using BioLux Gaussia lucferase assay kit (New England Biolabs, cat. no. E3300S). Amounts of transfected plasmids were kept proportionally constant. Samples were assayed for reporter activity using a Gloma 20/20 Luminometer (Promega), essentially using the recommended parameters provided by the reagent suppliers.
In experiments using p38MAPK, JNK, MEK1 and Ezh2 inhibitors, cells were grown in the continued presence of inhibitors. After each wash and activation step, cells were treated with a fresh batch of inhibitors. […]

[8] = tested on: phospho-ATF2, phospho-cJun and phospho-ERK; experiment: Kinase activities by western blot (inhibitor specificity); details: respectively, westerns, FIG. 18A
Experimental: as §1, §2

[9] = tested on: YY1; experiment: Western blot of YY1 protein in T cells grown with kinase inhibitors; details: same cells as reporter assay; FIG. 5C lower
Experimental: as §1, §2

Molecule | IL2 production of CAR-T cells on repeated exposure to tumor cells [6] | YY1 luciferase reporter transcriptional activity [7] | specificity to block the downstream kinases [8] | other results
CCCc1cc(C)[nH]c(=O)c1CNC(=O)c1cc(-c2ccc(N3CCN(C(C)C)CC3)nc2)cc2c1cnn2C(C)C [Ezh2 inhibitor] | sustained IL2 | – | – | H3-K27 trimethylation by western [1]: suppressed; IFNγ shutdown after repeated T cell stimulation [2]: does not protect; H3-K27 trimethylation of the IL2 promoter by ChIP/qPCR [3]: suppressed; IL2 exceeding that of control T cells by a factor [4]: > 40; net benefit in killing versus untreated CAR-T cells [5]: 5 fold
COc1cccc(-c2cc(=O)c3ccccc3o2)c1N [MEK1 inhibitor, PD98059] | – | no impact | confirmed | –
Oc1ccc(-c2nc(-c3ccncc3)c(-c3ccc(F)cc3)[nH]2)cc1 [p38MAPK inhibitor, SB202190] | – | suppressed | confirmed | YY1 protein by Western blot [9]: suppressed
nivolumab | same IL2 loss as control T cells | – | – | –
